The nature of the data set: Dissolution of THCA crystalline powder in distilled water at different pH. It counts as physicochemical. On the procedure:
50 mgs of high purity (>99% by weight) THCA crystalline powder was added to 250 ml of distilled water at a pH of 6.5.
The distilled water and THCA from Comparative Example 1 was brought to a pH of 9.5 through the addition of a base and warmed to 40° C.

With `CCCCCc1cc2c(c(O)c1C(=O)O)[C@@H]1C=C(C)CC[C@H]1C(C)(C)O2` [THCA, tetrahydrocannabinolic acid], under “50 mgs in 250 ml distilled water, pH 6.5, heated to 100° C.”, the “Dissolution in distilled water after heating” value is reported as “still did not dissolve”. Moreover, the “Dissolution in distilled water” value (50 mgs in 250 ml distilled water, pH 6.5, immediately and after stirring) is given as “did not immediately dissolve, not did it dissolve after stirring”. The “Dissolution in alkaline water” value (50 mgs in 250 ml water, pH 9.5 by addition of a base, warmed to 40° C.) was “dissolved into solution and produced a clear aqueous solution”. Besides, for the setting “pH 9.5 solution cooled to room temperature”, the “Solution stability after cooling” value was “the solution remained clear”.
